Active and inactive are the calls of the source.
Columns and labels:
[1] = target: T1, Corticotropin-releasing factor receptor 2/Corticotropin-releasing factor-binding protein (Homo sapiens, UniProt P24387+Q13324); test: Dose Response confirmation of uHTS hits for small molecule antagonists of the CRF-binding protein and CRF-R2 receptor complex.; assay type: functional; conditions: read-out: IC50_Mean
T1 sequence (Q13324 whole entry): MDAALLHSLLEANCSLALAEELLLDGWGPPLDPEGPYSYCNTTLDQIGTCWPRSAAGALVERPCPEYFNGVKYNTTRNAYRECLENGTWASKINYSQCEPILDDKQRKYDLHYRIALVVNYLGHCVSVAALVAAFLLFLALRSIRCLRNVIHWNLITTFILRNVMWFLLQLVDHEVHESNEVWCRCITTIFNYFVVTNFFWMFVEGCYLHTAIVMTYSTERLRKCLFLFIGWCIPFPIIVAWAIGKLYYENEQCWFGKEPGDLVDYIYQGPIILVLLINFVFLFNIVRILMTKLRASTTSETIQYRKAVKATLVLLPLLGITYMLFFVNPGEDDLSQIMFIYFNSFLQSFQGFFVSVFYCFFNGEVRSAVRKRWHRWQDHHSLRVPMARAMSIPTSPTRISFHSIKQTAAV
T1 sequence (P24387 whole entry): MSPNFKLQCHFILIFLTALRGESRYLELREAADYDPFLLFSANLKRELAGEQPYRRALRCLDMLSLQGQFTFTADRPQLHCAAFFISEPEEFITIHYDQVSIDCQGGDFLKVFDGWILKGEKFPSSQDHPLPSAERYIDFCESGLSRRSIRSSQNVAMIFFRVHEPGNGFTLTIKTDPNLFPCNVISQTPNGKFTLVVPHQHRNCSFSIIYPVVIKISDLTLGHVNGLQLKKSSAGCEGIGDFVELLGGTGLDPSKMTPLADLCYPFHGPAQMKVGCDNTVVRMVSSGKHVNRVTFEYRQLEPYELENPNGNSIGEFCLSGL

[2] = target: T1, Corticotropin-releasing factor receptor 2/Corticotropin-releasing factor-binding protein; test: activators of CRF receptor 2 with binding protein – uHTS hits, confirmation (AID 602473); assay type: functional; conditions: read-out: EC50_Mean
Large T antigen = Large T antigen (Simian virus 40, UniProt P03070); assay type: functional, Betapolyomavirus macacae;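 also: Confirmatory-stage PubChem screen for compounds that inhibit SV40 T antigen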
Sequence of Large T antigen (P03070 whole entry): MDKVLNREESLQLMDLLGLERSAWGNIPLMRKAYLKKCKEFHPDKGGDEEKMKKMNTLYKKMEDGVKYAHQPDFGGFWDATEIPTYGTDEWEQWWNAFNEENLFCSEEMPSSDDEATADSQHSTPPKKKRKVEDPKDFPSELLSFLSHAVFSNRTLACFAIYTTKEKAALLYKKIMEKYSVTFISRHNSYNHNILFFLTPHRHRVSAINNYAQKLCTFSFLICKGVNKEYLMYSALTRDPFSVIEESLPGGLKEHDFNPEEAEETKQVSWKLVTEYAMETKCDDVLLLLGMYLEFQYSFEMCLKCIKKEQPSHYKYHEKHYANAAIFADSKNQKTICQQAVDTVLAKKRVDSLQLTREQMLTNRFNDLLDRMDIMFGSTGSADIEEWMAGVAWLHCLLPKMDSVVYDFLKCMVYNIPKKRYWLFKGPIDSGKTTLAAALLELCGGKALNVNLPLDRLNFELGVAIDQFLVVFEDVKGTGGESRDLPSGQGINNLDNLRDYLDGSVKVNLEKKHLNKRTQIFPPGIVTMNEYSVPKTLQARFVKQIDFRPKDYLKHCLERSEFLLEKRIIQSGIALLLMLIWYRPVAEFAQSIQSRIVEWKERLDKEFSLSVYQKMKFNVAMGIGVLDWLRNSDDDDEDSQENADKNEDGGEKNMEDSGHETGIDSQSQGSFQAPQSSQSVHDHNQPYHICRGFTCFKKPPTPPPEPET

cells = assay type: functional
[3] = target: T2, Replicative DNA helicase DnaB (Mycobacterium tuberculosis, UniProt P9WMR3); test: DnaB intein splicing inhibitors, dose response, biochemical, cell-free fluorescence (AID 449749); assay type: functional
T2 sequence (P9WMR3 whole entry): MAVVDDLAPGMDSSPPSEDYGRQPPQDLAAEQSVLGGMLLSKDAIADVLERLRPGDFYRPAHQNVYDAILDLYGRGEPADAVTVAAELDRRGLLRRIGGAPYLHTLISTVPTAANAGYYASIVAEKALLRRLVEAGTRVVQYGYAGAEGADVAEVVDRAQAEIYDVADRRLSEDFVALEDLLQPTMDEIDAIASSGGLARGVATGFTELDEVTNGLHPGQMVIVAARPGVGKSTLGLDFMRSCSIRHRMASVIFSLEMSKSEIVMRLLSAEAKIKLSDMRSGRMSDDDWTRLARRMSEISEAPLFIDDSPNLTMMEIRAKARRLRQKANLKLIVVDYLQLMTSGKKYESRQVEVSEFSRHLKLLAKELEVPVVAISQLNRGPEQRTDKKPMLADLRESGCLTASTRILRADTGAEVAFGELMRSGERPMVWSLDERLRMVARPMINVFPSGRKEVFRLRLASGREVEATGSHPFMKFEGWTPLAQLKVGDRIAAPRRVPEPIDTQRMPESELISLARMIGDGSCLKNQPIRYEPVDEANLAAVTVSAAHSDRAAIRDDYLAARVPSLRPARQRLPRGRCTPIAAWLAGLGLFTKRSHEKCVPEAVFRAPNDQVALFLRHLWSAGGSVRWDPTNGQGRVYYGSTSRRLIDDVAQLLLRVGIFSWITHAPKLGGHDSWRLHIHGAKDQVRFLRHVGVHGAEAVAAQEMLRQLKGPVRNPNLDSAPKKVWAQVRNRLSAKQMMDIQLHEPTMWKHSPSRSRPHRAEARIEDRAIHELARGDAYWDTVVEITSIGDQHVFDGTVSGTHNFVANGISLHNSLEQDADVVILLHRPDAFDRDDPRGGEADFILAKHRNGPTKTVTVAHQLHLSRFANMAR

Protein RecA = target: T3, Protein RecA (Mycobacterium tuberculosis, UniProt P9WHJ3); test: Fluorescence Cell-Free Homogeneous Dose Retest to Identify Inhibitors of RecA-Intein Splicing Activity. [Related pubchem assays (depositor defined):AID2097, AID2223, AID489010, AID492950]; assay type: functional
T3 sequence (P9WHJ3 whole entry): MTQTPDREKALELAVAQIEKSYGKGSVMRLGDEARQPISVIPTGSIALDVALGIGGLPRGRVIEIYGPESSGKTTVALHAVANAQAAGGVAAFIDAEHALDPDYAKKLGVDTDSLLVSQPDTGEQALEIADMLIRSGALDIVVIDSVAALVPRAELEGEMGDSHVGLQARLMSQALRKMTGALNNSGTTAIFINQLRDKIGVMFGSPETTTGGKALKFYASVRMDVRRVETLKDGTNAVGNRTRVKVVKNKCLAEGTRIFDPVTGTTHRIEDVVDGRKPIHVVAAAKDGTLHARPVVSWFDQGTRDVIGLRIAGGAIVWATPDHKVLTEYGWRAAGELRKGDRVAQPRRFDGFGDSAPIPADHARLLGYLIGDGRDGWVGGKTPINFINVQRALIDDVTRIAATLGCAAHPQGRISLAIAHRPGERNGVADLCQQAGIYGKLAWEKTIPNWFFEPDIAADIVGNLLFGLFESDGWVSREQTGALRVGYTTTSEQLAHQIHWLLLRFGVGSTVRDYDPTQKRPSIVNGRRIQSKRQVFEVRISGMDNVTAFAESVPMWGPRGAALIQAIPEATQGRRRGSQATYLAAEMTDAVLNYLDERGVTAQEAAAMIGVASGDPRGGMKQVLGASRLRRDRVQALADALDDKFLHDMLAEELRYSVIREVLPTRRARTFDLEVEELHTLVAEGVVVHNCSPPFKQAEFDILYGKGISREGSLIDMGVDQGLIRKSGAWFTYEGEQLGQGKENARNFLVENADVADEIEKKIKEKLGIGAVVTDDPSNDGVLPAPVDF

[4] = target: T4, Heat shock factor protein 1 (Mus musculus, UniProt P38532); test: enhancement of HSF1-driven luciferase signal – cell-based, NIH3T3, luminescence, dose retest, confirmation (AID 435004); assay type: functional;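 also: stress induced by proteasome inhibitor MG132 added 30 min after compound; luciferase reporter driven by HSF1 response element in NIH3T3 cells; actives raise luminescence as potentiators of the MG132 stress response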
T4 sequence (P38532 whole entry): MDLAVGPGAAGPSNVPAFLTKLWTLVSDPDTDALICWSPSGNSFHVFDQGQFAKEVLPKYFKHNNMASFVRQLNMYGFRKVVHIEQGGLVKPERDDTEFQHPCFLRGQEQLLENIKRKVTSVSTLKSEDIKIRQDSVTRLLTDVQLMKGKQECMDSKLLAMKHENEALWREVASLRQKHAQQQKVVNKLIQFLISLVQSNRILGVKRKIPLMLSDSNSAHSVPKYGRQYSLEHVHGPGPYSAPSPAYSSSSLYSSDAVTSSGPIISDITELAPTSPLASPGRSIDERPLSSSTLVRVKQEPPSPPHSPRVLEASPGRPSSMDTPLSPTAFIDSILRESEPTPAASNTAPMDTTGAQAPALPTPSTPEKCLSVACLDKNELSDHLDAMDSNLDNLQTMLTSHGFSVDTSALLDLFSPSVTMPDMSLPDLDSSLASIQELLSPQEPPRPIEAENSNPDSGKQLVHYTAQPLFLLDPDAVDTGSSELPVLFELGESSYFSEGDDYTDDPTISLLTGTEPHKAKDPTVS

[5] = reduction of Shn3 3'UTR-driven luciferase in osteoblasts – cell-based, Clone20 osteoblasts, firefly luciferase, cherry-picked, dose response (AID 624132); assay type: functional;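 also: firefly luciferase luminescence from reporter carrying the Shn3 3'UTR in osteoblasts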
[6] = non-specific 3'UTR reporter inhibition in Clone20-Shn3RL – cell-based, Renilla luciferase, cherry-picked, counter-screen for Shn3 inhibitor project, dose response (AID 624133); assay type: functional
[7] = viability of uninfected HEp-2 cells – cell-based, HTS, cytotoxicity control for RSV inhibitor project, dose response (AID 2410); assay type: functional; conditions: human respiratory syncytial virus
[8] = tested on: Streptococcus sp. 'group A'; test: Streptococcus pyogenes SK(-)GAS viability under kanamycin – luminescence, BacTiterGlo, confirmation, counter-screen for streptokinase expression inhibitor project, dose response (AID 1900); assay type: functional, organism-based
Streptokinase A = target: T5, Streptokinase A (Streptococcus pyogenes serotype M1, UniProt P10520); test: viability-normalized secreted streptokinase activity reduction – plasminogen activation absorbance, OD405, dose response (AID 1914); assay type: functional, Streptococcus pyogenes M1 GAS;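 also: secreted streptokinase activity via plasminogen activation per viability signal from cell pellet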
T5 sequence (P10520 whole entry): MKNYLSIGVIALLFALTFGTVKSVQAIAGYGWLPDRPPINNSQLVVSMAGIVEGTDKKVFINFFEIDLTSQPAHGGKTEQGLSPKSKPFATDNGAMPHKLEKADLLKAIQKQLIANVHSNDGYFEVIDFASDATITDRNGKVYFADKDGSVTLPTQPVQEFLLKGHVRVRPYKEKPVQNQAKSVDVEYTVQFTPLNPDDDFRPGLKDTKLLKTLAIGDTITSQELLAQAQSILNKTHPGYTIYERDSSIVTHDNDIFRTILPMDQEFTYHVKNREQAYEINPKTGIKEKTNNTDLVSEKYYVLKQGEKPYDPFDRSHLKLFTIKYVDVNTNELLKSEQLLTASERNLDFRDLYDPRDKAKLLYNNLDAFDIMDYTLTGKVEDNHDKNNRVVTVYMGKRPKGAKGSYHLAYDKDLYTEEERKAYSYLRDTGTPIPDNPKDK

Streptococcus = test: GAS UMAA2166 growth inhibition – luminescence, BacTiterGlo, counter-screen for streptokinase expression inhibitor project, dose response (AID 1915); assay type: functional, organism-based;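 also: potency for reduction of bacterial viability or growth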
[9] = target: T6, Rac GTPase-activating protein 1 (Homo sapiens, UniProt Q9H0H5); test: blockers of MgcRacGAP-driven Rac1 GTP hydrolysis – biochemical, ADP Hunter fluorescence, primary and confirmatory, confirmation (AID 624330); assay type: functional
T6 sequence (Q9H0H5 whole entry): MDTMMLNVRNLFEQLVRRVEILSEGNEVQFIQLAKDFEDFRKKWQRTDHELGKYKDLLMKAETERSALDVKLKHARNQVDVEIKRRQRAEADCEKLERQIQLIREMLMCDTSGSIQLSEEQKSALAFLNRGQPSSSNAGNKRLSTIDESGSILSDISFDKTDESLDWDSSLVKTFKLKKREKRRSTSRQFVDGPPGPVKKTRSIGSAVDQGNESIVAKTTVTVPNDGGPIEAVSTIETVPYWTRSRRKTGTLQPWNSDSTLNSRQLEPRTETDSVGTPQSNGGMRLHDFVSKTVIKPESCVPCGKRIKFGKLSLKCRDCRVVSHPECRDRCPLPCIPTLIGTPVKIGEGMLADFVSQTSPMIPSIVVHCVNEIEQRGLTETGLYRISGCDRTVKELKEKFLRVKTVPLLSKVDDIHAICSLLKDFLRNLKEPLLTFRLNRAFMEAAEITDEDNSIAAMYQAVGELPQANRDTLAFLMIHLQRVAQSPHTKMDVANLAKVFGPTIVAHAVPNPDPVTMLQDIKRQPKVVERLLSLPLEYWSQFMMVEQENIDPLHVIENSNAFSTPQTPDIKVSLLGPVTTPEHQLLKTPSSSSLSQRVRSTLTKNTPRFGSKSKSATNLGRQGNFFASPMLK

Row | Compound | IC50 [1] | EC50 [2] | also measured
1 | CCc1nnc(NC(=O)CCC(=O)N2CCN(Cc3cc(Cl)ccc3OC)CC2)s1 | > 47.1 µM (inactive) | > 53 µM (inactive) | –
2 | COc1cccc(CNC(=O)CN(c2ccc(C(C)C)cc2)S(=O)(=O)c2c(C)noc2C)c1 | > 47.1 µM (inactive) | > 53 µM (inactive) | –
3 | Cc1ccc2oc(=O)c(/C=C(\O)C(C)(C)C)nc2c1 | – | – | IC50 (Large T antigen): 11 µM (active)
4 | Cc1n[nH]c2c1C(c1ccc(OC(=O)c3ccco3)cc1)C(C#N)=C(N)O2 (configuration not stated) | – | – | IC50 (cells): 35.2 µM (active); AC50 [3]: 9.43 µM (active); EC50 (Protein RecA): 3.62 µM (active)
5 | Cc1cccc(C(=O)N2CCc3ccccc3C2)c1[N+](=O)[O-] | > 47.1 µM (inactive) | > 53 µM (inactive) | –
6 | Fc1ccc(C2c3cccn3CCN2C(S)=Nc2cccc(F)c2)cc1 (configuration not stated) | > 47.1 µM (inactive) | > 53 µM (inactive) | –
7 | Cc1nc2ccccc2nc(C)c1=NOCc1ccccc1Cl | > 47.1 µM (inactive) | > 53 µM (inactive) | EC50 [4]: > 260 µM (inactive)
8 | COc1ccc(S(=O)(=O)N2CCN(c3cc(-c4ccccc4)nc4ncnn34)CC2)cc1 | – | – | AC50 [5]: 3.89 µM (active); AC50 [6]: 1.6 µM (active)
9 | N#Cc1ccc(S(=O)(=O)N2CCN(C(=O)[C@@H]3CCCN3C(=O)c3cccs3)CC2)cc1 | > 47.1 µM (inactive) | > 53 µM (inactive) | –
10 | O=C(NCCO)c1nc(C(=O)c2ccc(Cl)cc2)c2ccccc2n1 | > 47.1 µM (inactive) | > 53 µM (inactive) | –
11 | CCCNC(=O)c1ccc(CN2CCc3ccccc3C2)cc1 | > 47.1 µM (inactive) | > 53 µM (inactive) | –
12 | CCOC(=O)C(CC)/C(C)=N\NC(=O)c1cccc(C)c1 (configuration not stated) | > 47.1 µM (inactive) | > 53 µM (inactive) | –
13 | CC1C/C(=N\NC(=O)c2ccc([N+](=O)[O-])cc2)CC(C)(C)C1 (configuration not stated) | > 47.1 µM (inactive) | > 53 µM (inactive) | –
14 | CN1c2ccsc2/C(=N/Nc2ccccc2)CS1(=O)=O | – | – | CC50 [7]: > 50 µM (active); EC50 [8]: 2.34 µM (active); EC50 (Streptokinase A): 4.12 µM (active); EC50 (Streptococcus): 16.1 µM (active); IC50 (cells): 37 µM (active)
15 | Cn1cccc1/C=N/N1CCN(c2ccccn2)CC1 | – | – | IC50 (Large T antigen): 5.17 µM (active); IC50 [9]: 27.6 µM (active)
16 | O=C(N/N=C/c1ccc(OC(=O)c2ccco2)cc1)c1ccc[n+]([O-])c1 | – | – | IC50 (Large T antigen): 55.5 µM (active); AC50 [3]: 24.6 µM (active); EC50 (Protein RecA): 24.6 µM (active)

— ChEMBL document CHEMBL1201862, “PubChem BioAssay data set” (2004)
